Measured values as given in the supplement of paper PMC10627819.

What was measured:
Assay in all cases: fitness (endpoint OD595 vs no drug) (fraction); higher = more growth
[1] = tested on: S. aureus Newman
Procedure, shortened: (§1)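 Volumes were 30 µl per well, or 55 µl for S. pneumoniae, in 384-well plates inoculated at OD595 0.01. Media were TSB, LB Lennox or CY at 37 °C, and OD595 was read every 30 min for 14 h with first-reading background subtraction. Fitness is the ratio of optical density at stationary-phase entry to the robust mean of no-drug controls. That ratio is capped at 1.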

[2] = tested on: S. pneumoniae D39V
Procedure, shortened: as §1

[3] = tested on: B. subtilis 168
Procedure, shortened: as §1

CNC(C)C1CCC(N)C(OC2C(N)CC(N)C(OC3OCC(C)(O)C(NC)C3O)C2O)O1 (stereo not drawn) [Gentamicin] + CO[C@@]12[C@H](COC(N)=O)C3=C(C(=O)C(C)=C(N)C3=O)N1C[C@@H]1N[C@@H]12 [Mitomycin C]
fitness, [1], one replicate, main component drawn
Settings	first compound 0.375 µg/mL	first compound 0.75 µg/mL	first compound 1.5 µg/mL
partner 0.0156 µg/mL	0.755	0.779	0.774
partner 0.0312 µg/mL	0.762	0.725	0.707
partner 0.0625 µg/mL	0.602	0.603	0.607

fitness, main component drawn
Settings	partner 0.001075 µg/mL	partner 0.002 µg/mL	partner 0.00215 µg/mL	partner 0.004 µg/mL	partner 0.0043 µg/mL	partner 0.008 µg/mL	partner 0.0156 µg/mL	partner 0.0312 µg/mL	partner 0.0625 µg/mL
[1], first compound 0.5 µg/mL	–	–	–	–	–	–	0.762	0.667	0.558
[1], first compound 1 µg/mL	–	–	–	–	–	–	0.797	0.698	0.601
[1], first compound 2 µg/mL	–	–	–	–	–	–	0.808	0.732	0.585
[2], first compound 2 µg/mL	0.975	0.787	0.969	0.685	0.844	0.395	–	–	–
[2], first compound 4 µg/mL	0.94	0.729	0.915	0.602	0.807	0.369	–	–	–
[2], first compound 8 µg/mL	0.946	0.715	0.929	0.608	0.827	0.346	–	–	–

O=C(O)[C@H]1/C(=C/CO)O[C@@H]2CC(=O)N21 [Clavulanic acid] + C[n+]1ccc(-c2cc[n+](C)cc2)cc1 [Paraquat]
fitness
Settings	first compound 0.5 µg/mL	first compound 1 µg/mL	first compound 1.5 µg/mL	first compound 2 µg/mL	first compound 3 µg/mL	first compound 6 µg/mL
[2], partner 1.5 µg/mL	0.99	0.973	–	0.875	–	–
[2], partner 3 µg/mL	≥ 1	0.962	–	0.896	–	–
[2], partner 6 µg/mL	0.991	0.941	–	0.863	–	–
[3], partner 1.25 µg/mL	–	–	0.93	–	0.87	0.773
[3], partner 2.5 µg/mL	–	–	0.96	–	0.812	0.728
[3], partner 5 µg/mL	–	–	0.835	–	0.77	0.672

fitness, [1], one replicate
Settings	first compound 0.03125 µg/mL	first compound 0.0625 µg/mL	first compound 0.125 µg/mL
partner 1.25 µg/mL	0.952	0.99	0.843
partner 2.5 µg/mL	0.98	0.983	0.943
partner 5 µg/mL	0.99	≥ 1	0.89

O=C(O)[C@H]1/C(=C/CO)O[C@@H]2CC(=O)N21 [Clavulanic acid] + CCC[C@@H]1C[C@@H](C(=O)N[C@@H]([C@H]2O[C@H](SC)[C@H](O)[C@@H](O)[C@H]2O)[C@H](C)Cl)N(C)C1 [Clindamycin]
fitness, one replicate
Settings	first compound 0.03125 µg/mL	first compound 0.0625 µg/mL	first compound 0.125 µg/mL	first compound 1.5 µg/mL	first compound 3 µg/mL	first compound 6 µg/mL
[1], partner 0.0312 µg/mL	0.863	0.889	0.785	–	–	–
[1], partner 0.0625 µg/mL	0.544	0.518	0.402	–	–	–
[1], partner 0.125 µg/mL	0.38	0.375	0.282	–	–	–
[3], partner 0.0039 µg/mL	–	–	–	0.957	0.974	0.931
[3], partner 0.0078 µg/mL	–	–	–	0.842	0.826	0.791
[3], partner 0.0156 µg/mL	–	–	–	0.836	0.763	0.739

fitness
Settings	partner 0.0125 µg/mL	partner 0.015 µg/mL	partner 0.025 µg/mL	partner 0.03 µg/mL	partner 0.05 µg/mL	partner 0.06 µg/mL	partner 0.0625 µg/mL	partner 0.125 µg/mL	partner 0.25 µg/mL
[2], first compound 0.5 µg/mL	0.779	0.789	0.511	0.516	0.134	0.305	–	–	–
[2], first compound 1 µg/mL	0.749	0.78	0.485	0.567	0.116	0.417	–	–	–
[2], first compound 2 µg/mL	0.683	0.566	0.407	0.399	0.101	0.245	–	–	–
[3], first compound 1.5 µg/mL	–	–	–	–	–	–	0.609	0.322	0.308
[3], first compound 3 µg/mL	–	–	–	–	–	–	0.404	0.313	0.26
[3], first compound 6 µg/mL	–	–	–	–	–	–	0.398	0.24	0.217

O=C(O)[C@H]1/C(=C/CO)O[C@@H]2CC(=O)N21 [Clavulanic acid] + CO[C@@]12[C@H](COC(N)=O)C3=C(C(=O)C(C)=C(N)C3=O)N1C[C@@H]1N[C@@H]12 [Mitomycin C]
fitness, [1], one replicate
Settings	first compound 0.03125 µg/mL	first compound 0.0625 µg/mL	first compound 0.125 µg/mL
partner 0.0156 µg/mL	0.757	0.748	0.721
partner 0.0312 µg/mL	0.549	0.568	0.601
partner 0.0625 µg/mL	0.48	0.495	0.51

fitness, [2]
Settings	partner 0.001075 µg/mL	partner 0.00215 µg/mL	partner 0.004 µg/mL	partner 0.0043 µg/mL	partner 0.008 µg/mL
first compound 0.5 µg/mL	0.951	0.885	0.642	0.772	0.324
first compound 1 µg/mL	0.896	0.873	0.586	0.766	0.369
first compound 2 µg/mL	0.838	0.791	0.385	0.696	0.201

O=C(O)[C@H]1/C(=C/CO)O[C@@H]2CC(=O)N21 [Clavulanic acid] + Cc1ncc([N+](=O)[O-])n1CCO [Metronidazole]
fitness
Settings	partner 0.625 µg/mL	partner 1.073 µg/mL	partner 1.25 µg/mL	partner 2.145 µg/mL	partner 2.5 µg/mL	partner 4.29 µg/mL	partner 5 µg/mL
[2], first compound 0.5 µg/mL	–	0.946	≥ 1	0.946	≥ 1	0.858	≥ 1
[2], first compound 1 µg/mL	–	0.931	0.957	0.926	0.971	0.89	0.959
[2], first compound 2 µg/mL	–	0.839	0.801	0.779	0.828	0.829	0.805
[3], first compound 1.5 µg/mL	0.93	–	0.97	–	0.976	–	–
[3], first compound 3 µg/mL	0.909	–	0.89	–	0.886	–	–
[3], first compound 6 µg/mL	0.794	–	0.762	–	0.772	–	–

fitness, [1], one replicate
Settings	first compound 0.03125 µg/mL	first compound 0.0625 µg/mL	first compound 0.125 µg/mL
partner 0.625 µg/mL	0.976	0.94	0.85
partner 1.25 µg/mL	0.96	≥ 1	0.891
partner 2.5 µg/mL	0.996	≥ 1	0.852
